Target: T1, TACR1 (Homo sapiens, UniProt P25103)
T1 construct: purchased Promega (in-house HiBiT-GPCR construct library, NanoBRET)
Assay: NanoBRET screen HiBiT-TACR1 in HEK293
Format: binding
Procedure: Each tracer candidate was screened across the entire library of HiBiT-GPCR constructs using NanoBRET as the detection modality. As depicted in Figure 4A, the specificity of interactions was evaluated through decrease in BRET due to competitive displacement of a bound tracer by excess parental compound. Each tracer was analyzed for binding to each HiBiT-GPCR fusion in the absence and in the presence of competing parental compound. Briefly, HEK293 cells were transfected with HiBiT-GPCR constructs diluted into promoterless DNA to reduce expression and maximize translocation to the cell surface. Each tracer candidate was then screened at concentrations of 1 μM and 0.1 μM across cells expressing these fusions. Cells were treated for 1.5 h with tracer either alone or in the presence of 20 μM competing parental compound (i.e., control). BRET was measured upon addition of purified LgBiT and subsequent complementation with HiBiT genetically fused to a GPCR. The specificity of interactions was assessed through a decrease in BRET signal due to competitive displacement of the bound tracer. To further gauge the robustness of these interactions, the fold response over the control (i.e., BRETtracer/BRETcontrol) was calculated. We chose a 1.5-fold response, which translates to ≥7-fold signal over noise as the minimal threshold required to score an interaction as positive.
HiBiT-GPCR DNA constructs were diluted in 10 mM Tris pH 8 to a final concentration of 0.01 μg/μL, arrayed in 96-well plates and stored at −20 °C. For transfection, HEK293 cells were suspended in Opti-MEM (without phenol red) supplemented with 2% fetal bovine serum (Seradigm) and 100 units/mL penicillin–streptomycin (Gibco) at a final concentration of 220,000 cells/mL and dispensed into white 96-well plates at 90 μL/well. Subsequent transfections and screens were carried using an Agilent Bravo Automated Liquid Handling Platform. First, the 96-well HiBiT DNA arrays were diluted 25-fold in Opti-MEM (without serum or phenol red) to a final concentration of 0.0004 μg/μL and 20 μL of the diluted DNAs were transferred into new 96-well plates. Next, promoterless carrier DNA (1 μg/μL) was diluted 25-fold (0.04 μg/μL) and then dispensed into the diluted arrays at 20 μL/well. Following brief mixing, Viafect transfection reagent (Promega) diluted 16-fold into Opti-MEM was dispensed into the plates at 40 μL/well. After mixing by pipetting, plates were incubated for 10 min on the pipetting station deck. The DNA-transfection reagent complexes were then added to plates containing cells. To facilitate the screen, 10 μL of DNA-transfection reagent complexes were added in duplicates to the top 4 and bottom 4 rows, resulting in two identical 48-well arrays per plate. Plates with transfected cells were incubated for 18–20 h at 37 °C/5% CO2. A screen of each tracer across the entire library using two different concentrations requires duplicate plates of transfected cells. Depending on the number of tracers being screened, transfections can be scaled up using the same ratios. The next day, for each tracer, four 20× screening solutions in tracer dilution buffer (Promega) were prepared: two duplicates at final concentration of 20 μM and two duplicates at a final concentration of 2 μM. […] The four resulting solutions were diluted 4-fold in Opti-MEM without serum or phenol red to generate 5× solutions (5 µM and 0.5 µM tracer +/− 100 μM competing compound). To screen the library, a BioTek MultiFlo FX liquid dispenser was used to dispense 22.5 µL of tracer solution to the top 4 rows and 22.5 µL tracer + competing compound solution to the 4 bottom rows. Plates were briefly mixed on an orbital shaker and incubated for 1.5 h at room temperature. […] Plates were briefly mixed on an orbital shaker and incubated for 15 min to allow complementation.

T1 sequence (P25103 whole entry): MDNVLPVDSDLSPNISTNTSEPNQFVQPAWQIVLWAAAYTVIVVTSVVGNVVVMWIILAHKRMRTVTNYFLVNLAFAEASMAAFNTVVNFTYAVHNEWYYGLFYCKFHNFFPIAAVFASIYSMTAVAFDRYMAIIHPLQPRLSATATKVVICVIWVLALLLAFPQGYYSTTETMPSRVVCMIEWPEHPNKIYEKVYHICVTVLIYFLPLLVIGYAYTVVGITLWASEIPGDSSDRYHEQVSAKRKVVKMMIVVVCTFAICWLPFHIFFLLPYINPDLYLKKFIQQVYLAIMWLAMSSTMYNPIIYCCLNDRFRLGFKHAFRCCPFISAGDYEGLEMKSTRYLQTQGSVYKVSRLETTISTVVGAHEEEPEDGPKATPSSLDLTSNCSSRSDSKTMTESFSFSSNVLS

Row | Compound | NanoBRET Fold Response (TACR1, tracer 0.1μM) | NanoBRET Fold Response (TACR1, tracer 1μM) | also measured
1 | O=C(CCc1ccc2n1[B-](F)(F)[N+]1=C(c3ccc[nH]3)C=CC1=C2)NCc1ccc(C(=O)NCCOCCC(=O)N[C@@H]2CC[C@@]3(O)[C@H]4Cc5ccc(O)c6c5[C@@]3(CCN4CC3CC3)[C@H]2O6)cc1 [Naltrexone-3-NB590] | 1.06 | 0.90 | –
2 | CC(C)N(CC[C@H](c1ccccc1)c1cc(CCNC(=O)c2ccc(CNC(=O)CCc3ccc4n3[B-](F)(F)[N+]3=C(c5ccc[nH]5)C=CC3=C4)cc2)ccc1O)C(C)C [Tolterodine-BZ-NB590] | 0.93 | 1.01 | –
3 | COc1ccc2[nH]c(-c3ccc(CNC(=O)CCOCCOCCOCCOCCNC(=O)CCc4ccc5n4[B-](F)(F)[N+]4=C(c6ccc[nH]6)C=CC4=C5)cc3)c(CCNC(C)=O)c2n1 [AzomelatoninICO9-2-NB590] | – | – | NanoBRET Fold Response (0.1μM tracer): 1.08; NanoBRET Fold Response (1μM tracer): 0.85
4 | CN1CCN(C2=Nc3cc(Cl)ccc3N(CC(=O)NCCOCCOCCOCCOCCNC(=O)CCc3ccc4n3[B-](F)(F)[N+]3=C(c5ccc[nH]5)C=CC3=C4)c3ccccc32)CC1 [Clozapine-c-2-NB590] | – | – | NanoBRET Fold Response (TACR1, 0.1μM tracer): 0.99; NanoBRET Fold Response (TACR1, 1μM tracer): 0.96
5 | COc1ccccc1N1CCN(CCCCN2C(=O)c3ccc(CNC(=O)CCOCCNC(=O)c4ccc(CNC(=O)CCc5ccc6n5[B-](F)(F)[N+]5=C(c7ccc[nH]7)C=CC5=C6)cc4)cc3C2=O)CC1 [NAN-190-3-NB590] | 1.13 | 1.11 | –
6 | Cc1nc2n(c(=O)c1CCN1CCC(c3noc4cc(F)ccc34)CC1)CCCC2OC(=O)NCCOCCOCCOCCOCCNC(=O)CCc1ccc2n1[B-](F)(F)[N+]1=C(c3ccc[nH]3)C=CC1=C2 (stereo not shown) [Risperidone-2-NB590] | 1.10 | 0.95 | –
7 | O=C(CCOCCOCCOCCOCCNC(=O)CCc1ccc2n1[B-](F)(F)[N+]1=C(c3ccc[nH]3)C=CC1=C2)NCCCN1CCN(C2=Nc3ccccc3Oc3ccc(Cl)cc32)CC1 [Loxapine-a-2-NB590] | 1.06 | 1.12 | –
8 | COc1ccccc1N1CCN(CCCCN2C(=O)c3ccc(CNC(=O)CCOCCOCCOCCOCCNC(=O)CCc4ccc5n4[B-](F)(F)[N+]4=C(c6ccc[nH]6)C=CC4=C5)cc3C2=O)CC1 [NAN-190-2-NB590] | 0.98 | – | –
9 | CC(C)N(CC[C@H](c1ccccc1)c1cc(CCNC(=O)CCOCCOCCOCCOCCNC(=O)CCc2ccc3n2[B-](F)(F)[N+]2=C(c4ccc[nH]4)C=CC2=C3)ccc1O)C(C)C [Tolterodine-2-NB590] | 1.16 | 1.01 | –
10 | N#CN=C(NCCCOc1cccc(CN2CCCCC2)c1)NCCNC(=O)CCOCCOCCOCCOCCNC(=O)CCc1ccc2n1[B-](F)(F)[N+]1=C(c3ccc[nH]3)C=CC1=C2 [Aminopotentidine-2-NB590] | 1.01 | 1.02 | –
11 | CCOC(=O)c1cc(C#N)c(N2CCC(C(=O)NS(=O)(=O)Cc3ccccc3/C=C/C(=O)NCCNC(=O)CCc3ccc4n3[B-](F)(F)[N+]3=C(c5ccc[nH]5)C=CC3=C4)CC2)nc1C [AZD1283-1-NB590] | – | – | NanoBRET Fold Response (TACR1, 0.1μM): 1.06; NanoBRET Fold Response (TACR1, 1μM): 1.09
12 | CN(C)CCC=C1c2ccccc2CCc2ccc(C(=O)NCCNC(=O)CCOCCOCCOCCOCCNC(=O)CCc3ccc4n3[B-](F)(F)[N+]3=C(c5ccc[nH]5)C=CC3=C4)cc21 [Amitriptyline-b-2-NB590] | – | – | NanoBRET Fold Response (tracer at 0.1μM, listed as amitriptyline-b-2-NB590): 1.45; NanoBRET Fold Response (tracer at 1μM, listed as amitriptyline-b-2-NB590): 1.07
13 | CN(C)CCC=C1c2ccccc2CCc2ccc(C(=O)NCCNC(=O)CCOCCOCCOCCOCCNC(=O)CCc3ccc4n3[B-](F)(F)[N+]3=C(c5ccc[nH]5)C=CC3=C4)cc21 [Amitriptyline-a-2-NB590] | – | – | NanoBRET Fold Response (tracer at 0.1μM): 1.17; NanoBRET Fold Response (tracer at 1μM): 1.18
14 | O=C(CCc1ccc2n1[B-](F)(F)[N+]1=C(c3ccc[nH]3)C=CC1=C2)NCCOCCOCCNC(=O)OCCOCCN1CCN(C2=Nc3ccccc3Sc3ccccc32)CC1 [Quetiapine-a-2-NB590] | 0.97 | 0.83 | –
15 | Cc1cc2c(s1)Nc1ccccc1N=C2N1CCN(CCCNC(=O)CCOCCOCCOCCOCCNC(=O)CCc2ccc3n2[B-](F)(F)[N+]2=C(c4ccc[nH]4)C=CC2=C3)CC1 [Olanzapine-a-2-NB590] | 1.04 | 0.92 | –
16 | CN1CCN(C2=Nc3cc(Cl)ccc3Nc3ccc(CNC(=O)CCOCCOCCOCCOCCNC(=O)CCc4ccc5n4[B-](F)(F)[N+]4=C(c6ccc[nH]6)C=CC4=C5)cc32)CC1 [Clozapine-b-2-NB590] | – | – | NanoBRET Fold Response (TACR1, 0.1μM tracer): 1.06; NanoBRET Fold Response (TACR1, 1μM tracer): 1.08
17 | COc1ccc2c(n1)c(CCNC(C)=O)cn2CCNC(=O)CCc1ccc2n1[B-](F)(F)[N+]1=C(c3ccc[nH]3)C=CC1=C2 [Azamelatonin-1-NB590] | – | – | NanoBRET Fold Response (0.1μM tracer): 0.98; NanoBRET Fold Response (1μM tracer): 0.89
18 | O=C(CCc1ccc2n1[B-](F)(F)[N+]1=C(c3ccc[nH]3)C=CC1=C2)NCc1ccc(C(=O)NCCOCCOCCNCC(O)COc2cccc3ccccc23)cc1 (stereo not shown) [Propranolol-3-NB590] | – | – | NanoBRET Fold Response (TACR1, 0.1μM): 0.99; NanoBRET Fold Response (TACR1, 1μM): 1.00
19 | O=C(CCOCCOCCOCCOCCNC(=O)CCc1ccc2n1[B-](F)(F)[N+]1=C(c3ccc[nH]3)C=CC1=C2)NCCCN1CCN(C2=Nc3cc(Cl)ccc3Nc3ccccc32)CC1 [Clozapine-a-2-NB590] | – | – | NanoBRET Fold Response (TACR1, 0.1μM tracer): 1.15; NanoBRET Fold Response (TACR1, 1μM tracer): 1.01
